Test results published in patent publication US11484513B2, “Salbutamol-containing ophthalmic medicament” (priority 2016, dated 2022).

What was measured:
Myopia = assay: Clinical observation in myopia patients; assay type: in vivo, human; settings: 12 myopia patients, eye drops
Experimental: (§1) The invention will be illustrated further by the description of clinical examples, which of course are not limiting in nature. The medicament was administrated orally, topically in the form of eye drops or by intraocular injection especially intravitreal injection, unless indicated differently.
(§2) According to particular embodiments where topical administration using eye drops is carried out, the dosages, posologies, administration regimen of the administered active principles are as described in the particular embodiments disclosed in the detailed description, i.e., Salbutamol is administered topically in a concentration of 0.1% (w/v), and/or Ramiprilate is administered topically in a concentration of 2% (w/v), and/or eplerenone is administered topically in a concentration of 1% (w/v), and/or N Acetyl DL Leucine is administered topically in a concentration of 1% (w/v), the active principle(s) being administered once or twice or three times, and up to four times a day, during 1, 2 or 3 months, or more, unless specified differently.
This invention relates to the manufacture of an eye protective medicament, namely Salbutamol via general route or topical route (eye drops) for improving vision.
12 patients were evaluated and received salbutamol in the form of eye drops.
Results: in the addition to the improvement of their visual acuity, the refractive value was reduced. […]

Presbyopia = assay: Clinical observation in presbyopia patients; assay type: in vivo, human; settings: 08 patients, eye drops
Experimental: as §1, §2
08 patients received Salbutamol in the form of eye drops and experimented an improvement of their near vision and a decrease in presbyopia. […] Salbutamol has proven to be an effective treatment of presbyopia.

Astigmatism = assay: Clinical observation in astigmatism subjects; assay type: in vivo, human
Source text: The invention will be illustrated further by the description of clinical examples, which of course are not limiting in nature. The medicament was administrated orally, topically in the form of eye drops or by intraocular injection especially intravitreal injection, unless indicated differently. This invention relates to the manufacture of an eye protective medicament, namely Salbutamol via general route or topical route (eye drops) for improving vision. More particularly, but not exclusively, it relates to eye drops comprising Salbutamol, which are intended for improving (i.e., in the present case decreasing the effects of presbyopia, myopia, hypermetropia and astigmatism) and for stabilizing them or even reversing their evolutive course thereof. The astigmatism subjects noticed an improvement of their refraction and visual acuity.

Keratoconus = assay: Clinical observation in keratoconus patients; assay type: in vivo, human; settings: 02 keratoconus patients
Source text: as §1, with “differently. 02 patients received Salbutamol, they noticed an improvement of visual acuity and a reduced irregular astigmatism.” for “differently.”

Diabetic retinopathy = assay: Clinical observation in diabetic retinopathy patients (visual acuity, OCT); assay type: in vivo, human
Experimental: as §1, §2
Currently, one examination technique is very useful in evaluating diabetic; that's optical coherence tomography (O.C.T).
OCT is very sensitive in evaluating diabetic macular oedema, central macular thickness correlates with visual acuity.
The response of macular oedema to the administration of one drug such as Salbutamol or a medicament associating Salbutamol, angiotensin converting enzyme inhibitor, antagonist of aldosterone receptor and N Acetyl DL Leucine can be documented accurately by O.C.T imaging.
Diabetic patients were treated with these medicaments given topically,
The following study was undertaken on several patients having non-proliferative diabetic; retinopathy or proliferative diabetic retinopathy.
20 patients were treated with either Salbutamol or salbutamol associated with one or more of these: ACEI (angiotensin converting enzyme inhibitor), aldosterone receptor antagonist, N Acetyl DL Leucine, magnesium and serrapeptase (eye drops; tablets; intra ocular injection especially intra vitreal injection). […]

[1] = system: Age related macular degeneration; assay: Clinical observation in age related macular degeneration patients (visual acuity, OCT, fluoro-angiography); assay type: in vivo, human
Experimental: as §1, §2
The structural information provided by O.C.T is becoming a valuable diagnostic adjunct to fluorescein angiography. OCT is a valuable tool for probing the effect of these treatments.
15 patients were treated with salbutamol or salbutamol associated with one or more of these: aldosterone receptor antagonist, ACEI (angiotensin converting enzyme inhibitor), N Acetyl DL Leucine, magnesium and serrapeptase (Eye drops; tablets; intra ocular injection).
Patient three presented with a history of decreased vision in the right eye. […] Prior to receiving Salbutamol treatment an OCT scan was taken, which is shown in (FIG. 06).
Then we prescribe topically Salbutamol eye drops 0.1% (w/v), Ramiprilat eye drops 2% (W/v), Eplerenone eye drops 1% (w/v). N Acetyl DL Leucine eye drops 1% (w/v) association three times a day.
Patient two presented with a six months history of decreased vision in the right eye.
They were treated with Salbutamol eye drops 0.1% (w/v). Three months later visual acuity improved.

Uveitis = assay: Clinical observation in uveitis cases (visual acuity, OCT); assay type: in vivo, human; settings: 10 cases of uveitis pooled (salbutamol alone or associated)
Experimental: as §1, §2
In 10 cases of uveitis; salbutamol alone or associated with one or more of these: non-steroidal anti inflammatory drugs, angiotensin converting enzyme inhibitors, aldosterone receptors antagonist, β1 blocker, anhydrase carbonic inhibitor, magnesium, corticosteroids and serrapeptase reduced inflammatory disorders. […]

Glaucoma = assay: Clinical observation in glaucoma patients; assay type: in vivo, human; settings: patients with known glaucoma, pooled (Salbutamol alone or associated)
Experimental: as §1
Patients with known glaucoma experienced a decrease in their ocular tension, and an improvement of their visual acuity and visual field once they are treated with Salbutamol or salbutamol associated with one or more of these: N Acetyl DL Leucine, glucose, magnesium, aldosterone receptor antagonist (eplerenone), angiotensin converting enzyme inhibitor (Ramiprilat), β1 blocker and anhydrase carbonic inhibitor.

Pigmentosa retinitis = assay: Clinical observation in pigmentosa retinitis patients; assay type: in vivo, human
Source text: as §1

Stargardt's disease = assay: Clinical observation in Stargardt's disease patients; assay type: in vivo, human; settings: 8 patients
Source text: as §1
8 patients treated with Salbutamol noticed an improvement of their visual acuity.
If we associate to Salbutamol one or more of these: N Acetyl DL Leucine, nitric monoxide donor (vitamin C, vitamin B9), Ramiprilat, and aldosterone receptor antagonist; improvement is noted.

Cataract = assay: Clinical observation in cataract; assay type: in vivo, human; settings: under salbutamol
Source text: as §1

Corneal oedema = assay: Clinical observation in corneal oedema patients; assay type: in vivo, human; settings: 10 patients
Source text: as §1

[2] = system: Age related physiological vision decline; assay: Clinical observation in age related physiological vision decline; assay type: in vivo, human; settings: many cases, absence of any ocular pathology
Source text: as §1

Dry eye = assay: Clinical observation in dry eye patients; assay type: in vivo, human; settings: 7 patients, eye drops
Source text: as §1

[3] = system: Allergic conjunctivitis and blepharitis; assay: Clinical observation in allergic conjunctivitis and blepharitis patients; assay type: in vivo, human; settings: 5 patients, eye drops
Source text: as §1

Periretinal fibrosis = assay: Clinical observation in periretinal fibrosis; settings: human, in vivo
Source text: as §1
13) Periretinal fibrosis: is reduced after Salbutamol treatment.

Vitreo macular traction = assay: Clinical observation in vitreo macular traction / proliferative diabetic retinopathy (vitreolysis); assay type: in vivo, human
Source text: as §1
In many cases of proliferative diabetic retinopathy including fibrovascular proliferation, retinal detachment, vitreo macular traction, the intravitreal injection of Salbutamol led to induction of posterior vitreous detachment, easier peeling and removal of epiretinal fibrotic membrane and internal limiting membrane particularly in macular hole pathology.

Vitreous hemorrhage = assay: Clinical observation in vitreous hemorrhage; assay type: in vivo, human; settings: many cases
Source text: as §1

[4] = 20 patients pooled (Salbutamol alone or associated), eye drops, tablets, intra ocular injection
[5] = 15 patients pooled (salbutamol alone or associated), eye drops, tablets, intra ocular injection
[6] = patient two, right eye, Salbutamol eye drops 0.1% (w/v), three months later

For `CC(C)(C)NCC(O)c1ccc(O)c(CO)c1` (stereo not shown) [Salbutamol], which refractive value (Myopia) is on record?
Its refractive value is “reduced”.

What about the visual acuity (Myopia) of the same compound?
The visual acuity was “improvement”.

What about the near vision (Presbyopia) of the same compound?
The near vision was “improvement”.

And the “need to wear a correction of the near vision” value (Presbyopia)?
The value was “Some of them did not need any longer”.

And the presbyopia (Presbyopia)?
The presbyopia was “decrease”.

What about the refraction (Astigmatism) of the same compound?
The refraction was “improvement”.

What about the visual acuity (Astigmatism) of the same compound?
The visual acuity was “improvement”.

And the irregular astigmatism (Keratoconus)?
Its irregular astigmatism is “reduced”.

And the visual acuity (Keratoconus)?
Its visual acuity is “improvement”.

What about the retinopathy (Diabetic retinopathy; [4]) of the same compound?
Its retinopathy is “improves”.

What about the visual acuity (Diabetic retinopathy; [4]) of the same compound?
Its visual acuity is “improves”.

What about the “total macular volume (OCT)” value (Diabetic retinopathy; patient one, eye drops 0.1% (w/v), two months after treatment) of the same compound?
Its value is “decreased”.

What about the O.C.T [1, 5] of the same compound?
The O.C.T was “improvement”.

What about the visual acuity [1, 5] of the same compound?
The visual acuity was “improvement”.

What about the macular thickening ([1]; eye drops given topically instead of intraocular anti VEGF injection) of the same compound?
The macular thickening was “regression”.

And the “successive OCT controls” value ([1]; patient three, first round of treatment (Salbutamol))?
Its value is “more improvement but no complete recovery”.

And the macular thickening ([1]; patient three, right eye, occult CNV, three months after Salbutamol treatment)?
Its macular thickening is “incomplete regression”.

What about the “macular thickening (OCT)” value [1, 6] of the same compound?
Its value is “incomplete regression”.

What about the visual acuity [1, 6] of the same compound?
The visual acuity was “improved”.

And the inflammatory disorders (Uveitis)?
Its inflammatory disorders is “reduced”.

And the ocular tension (Glaucoma)?
The ocular tension was “decrease”.

What about the visual acuity (Glaucoma) of the same compound?
The visual acuity was “improvement”.

And the visual field (Glaucoma)?
Its visual field is “improvement”.

What about the visual acuity (Pigmentosa retinitis; 9 patients, all of them) of the same compound?
Its visual acuity is “improvement”.

What about the visual field (Pigmentosa retinitis; 9 patients, all of them) of the same compound?
The visual field was “improvement”.

What about the visual function (Pigmentosa retinitis; pigmentosa retinitis) of the same compound?
Its visual function is “improvement”.

What about the visual acuity (Stargardt's disease) of the same compound?
The visual acuity was “improvement”.

And the improvement of cataract (Cataract)?
Its improvement of cataract is “Some improvement”.

What about the oedema (Corneal oedema) of the same compound?
Its oedema is “decreased”.

And the vision (Corneal oedema)?
Its vision is “improve”.

What about the visual function [2] of the same compound?
The visual function was “improved”.

What about the dry eye (Dry eye) of the same compound?
Its dry eye is “improved”.

And the “allergic conjunctivitis and blepharitis” value [3]?
The value was “improved”.

And the periretinal fibrosis (Periretinal fibrosis)?
The periretinal fibrosis was “reduced”.

And the “effect on the retina” value (Vitreo macular traction; during vitreolysis)?
Its value is “without adversely affecting the retina”.

And the proteolytic activity (Vitreo macular traction; human, in vivo)?
The proteolytic activity was “seems to have a proteolytic activity”.

And the vitreolysis (Vitreo macular traction; human, in vivo)?
The vitreolysis was “promotes a vitreolysis inducing both synchesis and synerisis”.

And the posterior vitreous detachment (Vitreo macular traction; intravitreal injection, many cases of proliferative diabetic retinopathy incl. vitreo macular traction)?
Its posterior vitreous detachment is “induction”.

And the “peeling and removal of epiretinal fibrotic membrane and internal limiting membrane” value (Vitreo macular traction; intravitreal injection, many cases of proliferative diabetic retinopathy, particularly macular hole pathology)?
The value was “easier”.

What about the vitreous hemorrhage (Vitreous hemorrhage) of the same compound?
Its vitreous hemorrhage is “decreased”.
